Reference: the supplement of paper PMC11061612

Experiments:
[1] = system: 23132-87 (Gastric Carcinoma); assay: combination Emax (second highest fraction inhibited in the dose matrix, 72 h); higher = more inhibition; extreme values may be limits of the assay
In short: (§1)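 Cell lines grown in DMEM/F12 or RPMI with 10% FBS were plated in 1536-well plates and held 24 hours at 37°C, 5% CO2 before 72 hours of exposure to two-drug dose matrices, with DMSO typically at 0.2%. CellTiter-Glo 2.0 luminescence gave viability, which was converted to inhibition. Vehicle wells were set to 0 and blank wells to 1. Combination Emax is the second-highest inhibition in the matrix, and Bliss excess is the observed combination effect minus the expected EA + EB − EA·EB, where EA and EB are the single-agent effects.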

[2] = system: RERF-LC-Sq1 (Squamous Cell Lung Carcinoma); assay: as above
In short: as §1

[3] = system: REH (B-Lymphoblastic Leukemia); assay: as above
In short: as §1

[4] = system: MKN45 (Gastric Carcinoma); assay: as above
In short: as §1

[5] = system: CAL-62 (Thyroid Gland Carcinoma); assay: as above
In short: as §1

[6] = system: TE-8 (Esophageal Squamous Cell Carcinoma); assay: as above
In short: as §1

[7] = system: SU-DHL-10 (B-Cell Non-Hodgkin's Lymphoma); assay: as above
In short: as §1

IST-MES1 (Mesothelioma) = assay: as above
In short: as §1

WM278 (Melanoma) = assay: as above
In short: as §1

[8] = system: RKN (Other Solid Carcinomas); assay: as above
In short: as §1

[9] = system: COLO-680N (Esophageal Squamous Cell Carcinoma); assay: as above
In short: as §1

[10] = system: OVMIU (Ovarian Carcinoma); assay: as above
In short: as §1

A2058 (Melanoma) = assay: as above
In short: as §1

[11] = system: CAL-120 (Breast Carcinoma); assay: as above
In short: as §1

[12] = system: SHP-77 (Small Cell Lung Carcinoma); assay: as above
In short: as §1

WM793B (Melanoma) = assay: as above
In short: as §1

[13] = system: MFE-280 (Endometrial Carcinoma); assay: as above
In short: as §1

[14] = system: RKN (Other Solid Carcinomas); assay: Bliss excess, mean over the matrix (fraction); higher = more synergy
In short: as §1

SF539 (Glioblastoma) = assay: as above
In short: as §1

[15] = system: PANC-03-27 (Pancreatic Carcinoma); assay: as above
In short: as §1
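For Bliss excess, mean over the matrix in this document: after 72 h of two-drug dosing.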

| SMILES | combination Emax [1] | combination Emax [2] | combination Emax [3] | combination Emax [4] | combination Emax [5] | combination Emax [6] | combination Emax [7] | combination Emax (IST-MES1 (Mesothelioma)) | combination Emax (WM278 (Melanoma)) | combination Emax [8] | combination Emax [9] | combination Emax [10] | combination Emax (A2058 (Melanoma)) | combination Emax [11] | combination Emax [12] | combination Emax (WM793B (Melanoma)) | combination Emax [13] | Bliss excess [14] | Bliss excess (SF539 (Glioblastoma)) | Bliss excess [15] |
| --- | --- | --- | --- | --- | --- | --- | --- | --- | --- | --- | --- | --- | --- | --- | --- | --- | --- | --- | --- | --- |
| CN(C)CCCOc1ccc(-c2ccc3ncc4c(c3c2)n(C2CCOCC2)c(=O)n4C)cn1 [AZD0156] + C=CCn1c(=O)c2cnc(Nc3ccc(N4CCN(C)CC4)cc3)nc2n1-c1cccc(C(C)(C)O)n1 [AZD1775] (first compound max 1 µM, partner max 1 µM) | 0.645 | 0.758 | 0.757 | 0.701 | 0.709 | 0.783 | 0.936 | 0.207 | 0.228 | 0.263 | 0.196 | 0.519 | 0.121 | 0.326 | 0.419 | 0.452 | 0.55 | -0.0683 | -0.0023 | -0.063 |
| CN(C)CCCOc1ccc(-c2ccc3ncc4c(c3c2)n(C2CCOCC2)c(=O)n4C)cn1 [AZD0156] + CCN(CCO)CCCOc1ccc2c(Nc3cc(CC(=O)Nc4cccc(F)c4)[nH]n3)ncnc2c1 [AZD2811] (first compound max 1 µM, 7x7, partner max 1 µM) | 0.118 | 0.306 | 0.481 | 0.342 | 0.182 | 0.196 | 0.835 | 0.172 | 0.0859 | 0.132 | 0.0884 | 0.144 | 0.0924 | 0.102 | 0.237 | 0.323 | 0.47 | -0.0417 | -0.0196 | -0.0519 |
| CN(C)CCCOc1ccc(-c2ccc3ncc4c(c3c2)n(C2CCOCC2)c(=O)n4C)cn1 [AZD0156] + C[C@@H]1COCCN1C2=NC(=NC(=C2)C3(CC3)[S@](=N)(=O)C)C4=C5C=CNC5=NC=C4 [AZD6738] (first compound max 1 µM, 7x7, partner max 10 µM) | 0.873 | 0.843 | 0.625 | 0.791 | 0.755 | 0.817 | 0.979 | 0.176 | 0.341 | 0.206 | 0.267 | 0.396 | 0.225 | 0.437 | 0.665 | 0.891 | 0.335 | -0.0126 | 0.0274 | -0.0078 |
| CN(C)CCCOc1ccc(-c2ccc3ncc4c(c3c2)n(C2CCOCC2)c(=O)n4C)cn1 [AZD0156] + O=C(c1cc(Cc2n[nH]c(=O)c3ccccc23)ccc1F)N1CCN(C(=O)C2CC2)CC1 [Olaparib] (first compound max 3 µM, partner max 3 µM) | 0.644 | 0.418 | 0.457 | 0.356 | 0.342 |  | 0.342 | 0.212 | 0.209 | 0.214 | 0.16 | 0.347 | 0.37 | 0.29 | 0.209 | 0.197 | 0.312 | 0.0042 | 0.133 | -0.0236 |
| C=CCn1c(=O)c2cnc(Nc3ccc(N4CCN(C)CC4)cc3)nc2n1-c1cccc(C(C)(C)O)n1 [AZD1775] + C1CN(CCC1(C(=O)N[C@@H](CCO)C2=CC=C(C=C2)Cl)N)C3=NC=NC4=C3C=CN4 [Capivasertib] (first compound max 3 µM, partner max 3 µM) | 0.829 | 0.844 | 0.93 | 0.741 | 0.868 |  | 1 | 0.292 | 0.389 | 0.762 | 0.306 | 0.749 | 0.886 | 0.727 | 0.885 | 0.606 | 0.451 | -0.0476 | -0.0878 | -0.0573 |
| C=CCn1c(=O)c2cnc(Nc3ccc(N4CCN(C)CC4)cc3)nc2n1-c1cccc(C(C)(C)O)n1 [AZD1775] + C[C@@H]1COCCN1C2=NC(=NC(=C2)C3(CC3)[S@](=N)(=O)C)C4=C5C=CNC5=NC=C4 [AZD6738] (first compound max 1 µM, partner max 10 µM) | 0.918 | 0.859 | 0.955 | 0.787 | 0.928 | 0.932 | 1 | 0.597 | 0.44 | 0.35 | 0.529 | 0.731 | 0.413 | 0.583 | 0.827 | 0.875 | 0.627 | -0.0029 | 0.0027 | -0.0426 |
| CN(CCO)CC[C@H](CSc1ccccc1)Nc1ccc(S(=O)(=O)NC(=O)c2ccc(N3CCC([C@@H](O)c4ccccc4-c4ccc(Cl)cc4)CC3)cc2)cc1S(=O)(=O)C(F)(F)F [AZD4320] + C1CN(CCC1(C(=O)N[C@@H](CCO)C2=CC=C(C=C2)Cl)N)C3=NC=NC4=C3C=CN4 [Capivasertib] (first compound max 1 µM, 7x7, partner max 3 µM) | 0.221 | 0.667 | 1 | 0.456 | 0.152 | 0.349 | 0.97 | 0.0905 | 0.599 | 0.154 | 0.0496 | 0.876 | 0.191 |  |  | 0.281 | 0.88 | -0.0321 | -0.0352 | -0.0481 |
| CN(CCO)CC[C@H](CSc1ccccc1)Nc1ccc(S(=O)(=O)NC(=O)c2ccc(N3CCC([C@@H](O)c4ccccc4-c4ccc(Cl)cc4)CC3)cc2)cc1S(=O)(=O)C(F)(F)F [AZD4320] + CCN(CCO)CCCOc1ccc2c(Nc3cc(CC(=O)Nc4cccc(F)c4)[nH]n3)ncnc2c1 [AZD2811] (first compound max 1 µM, 7x7, partner max 1 µM) | 0.258 | 0.275 | 1 | 0.316 | 0.488 | 0.583 | 0.759 | 0.213 | 0.635 |  | 0.137 | 0.802 | 0.47 | 0.829 | 0.65 | 0.246 | 0.888 | -0.0481 | 0.0862 | 0.0197 |
| CN(CCO)CC[C@H](CSc1ccccc1)Nc1ccc(S(=O)(=O)NC(=O)c2ccc(N3CCC([C@@H](O)c4ccccc4-c4ccc(Cl)cc4)CC3)cc2)cc1S(=O)(=O)C(F)(F)F [AZD4320] + Cn1cnc2c(F)c(Nc3ccc(Br)cc3Cl)c(C(=O)NOCCO)cc21 [Selumetinib] (first compound max 1 µM, 7x7, partner max 3 µM) | 0.615 | 0.49 | 0.992 | 0.511 |  | 0.502 | 0.617 | 0.257 | 0.918 | 0.326 | 0.246 | 0.739 | 0.76 | 0.8 | 0.613 | 0.578 | 0.705 | 0.0307 | 0.0176 | 0.0406 |
| COc1nnc2ccc(N3CCC(c4ccc(OCCN5CCN(C)C(=O)[C@H]5C)cc4)CC3)nn12 [AZD5153] + CN(CC[C@H](CSC1=CC=CC=C1)NC2=C(C=C(C=C2)S(=O)(=O)NC(=O)C3=CC=C(C=C3)N4CCC(CC4)[C@H](C5=CC=CC=C5C6=CC=C(C=C6)Cl)O)S(=O)(=O)C(F)(F)F)CCO [AZD4320] (first compound max 1 µM, 7x7, partner max 1 µM) | 0.349 | 0.706 |  |  |  |  | 1 |  | 0.829 |  |  |  | 0.577 | 0.919 |  | 0.508 |  |  |  |  |
| CS(=O)(=O)CCNCc1ccc(-c2ccc3ncnc(Nc4ccc(OCc5cccc(F)c5)c(Cl)c4)c3c2)o1 [Lapatinib] + NC1(c2ccc(-c3nc4ccn5c(=O)[nH]nc5c4cc3-c3ccccc3)cc2)CCC1 [MK-2206] (first compound max 10 µM, 7x7, partner max 10 µM) |  |  | 0.957 | 0.617 | 0.721 | 0.52 |  | 0.638 |  | 0.346 | 0.467 | 0.891 | 0.982 |  | 0.633 |  | 0.911 | -0.0169 | -0.0077 | -0.0064 |
| CCc1c2c(nc3ccc(O)cc13)-c1cc3c(c(=O)n1C2)COC(=O)[C@]3(O)CC [SN-38] + O=C(c1cc(Cc2n[nH]c(=O)c3ccccc23)ccc1F)N1CCN(C(=O)C2CC2)CC1 [Olaparib] (first compound max 0.3 µM, 7x7, partner max 10 µM) | 0.814 | 0.672 | 1 | 0.847 | 0.911 | 0.575 |  | 0.63 | 0.627 | 0.651 | 0.386 | 0.479 | 0.22 | 0.7 | 0.567 |  | 0.785 | 0.0145 | 0.0549 | 0.0498 |
| C[C@@H](c1ccc2nccn2c1)n1nnc2ncc(-c3cnn(C)c3)nc21 [Savolitinib] + CN(CC[C@H](CSC1=CC=CC=C1)NC2=C(C=C(C=C2)S(=O)(=O)NC(=O)C3=CC=C(C=C3)N4CCC(CC4)[C@H](C5=CC=CC=C5C6=CC=C(C=C6)Cl)O)S(=O)(=O)C(F)(F)F)CCO [AZD4320] (first compound max 1 µM, 7x7, partner max 1 µM) | 0.338 | 0.238 |  |  |  |  | 0.0854 |  | 0.55 |  |  |  | 0.192 | 0.65 |  | 0.137 |  |  |  |  |
